Measurements from patent US20250295609A1, “COMPOUND HAVING ANTI-ANDROGEN RECEPTOR ACTIVITY, AND USE THEREOF” (NANJING MINOVA PHARMACEUTICAL CO., LTD., priority 2022, published 2025).

Tested on: alopecia mouse model
Assay: Hair growth promotion test in mice with alopecia (testosterone propionate model)
Type: in vivo, C57BL/6 mice
Description: The compounds of the present disclosure were tested for their hair growth-promoting effects on an alopecia mouse model.
C57BL/6 mice (purchased from SPF (Beijing) Biotechnology Co., Ltd., production license No.: SCXK (Beijing) 2019-0010), test compounds (prepared by the method of the present disclosure), rosin (Shanghai YuanYe Bio-Technology Co., Ltd., lot No. Y18M10C83144), liquid paraffin (Shanghai YuanYe Bio-Technology Co., Ltd., lot No.: Z22S11Y125555), chloral hydrate (Sinopharm Chemical Reagent Co., Ltd., lot No.: 20190823, a 2% chloral hydrate solution was prepared by using a 0.9% sodium chloride solution before use), testosterone propionate (Aladdin Reagent (Shanghai) Co., Ltd., lot No.: T101368, a 0.5% testosterone propionate solution was prepared by using an a soybean oil for injection before use), soybean oil for injection (Liaoning Shinsun Pharmaceutical Co., Ltd., lot No.: NMPA Approval No. H21024303), paraformaldehyde (Xilong Scientific Co., Ltd., lot No.: 1705022), a 0.9% sodium chloride solution (Jiangsu Huai'an Shuanghe Pharmaceutical Co., Ltd., lot No.: 210322-3C), an electronic balance (Beijing Sartorius Scientific Instruments Co., Ltd., model: BS224 S; GZX-9140MBE), and a digital display electric heating constant temperature air blast drying oven (Shanghai Boxun Medical Biological Instrument Corp.).
8-week-old male C57BL/6 mice were selected and injected with 2% chloral hydrate (400 mg/kg) for anesthesia. Equal amounts of rosin and paraffin were weighed out, heated, and mixed well. The mixture was applied on the front back of the mice in an area of about 2 cm×2.5 cm. After the mixture was cooled to be hard, the solidified hair was torn off by tweezers gently.
Qualified C57BL/6 mice (3 mice per group) were randomly assigned to a blank group, a model group, a positive control drug group (7.5% clascoterone group), and test groups (including 0.3% compound 8 group and 0.3% compound 7 group). Mice in the blank group were coated with 0.1 mL of normal saline in the depilated area every morning (1 time a day for 17 consecutive days); mice in the model group were coated with 0.1 mL of 0.5% testosterone propionate solution in the depilated area every morning (1 time a day, starting on the first day, for 17 consecutive days), and with 0.5 mL of the control solvent in the depilated area every afternoon (1 time a day, starting on the second day, for 16 consecutive days); mice in the positive control drug group were coated with 0.1 mL of 0.5% testosterone propionate solution in the depilated area every morning (1 time a day, starting on the first day, for 17 consecutive days), and with 0.5 mL of 7.5% clascoterone solution in the depilated area every afternoon (1 time a day, starting on the second day, for 16 consecutive days); and mice in the test groups were coated with 0.1 mL of 0.5% testosterone propionate solution in the depilated area every morning (1 time a day, starting on the first day, for 17 consecutive days), and with 0.5 mL of 0.3% test compound solution in the depilated area every afternoon (1 time a day, starting on the second day, for 16 consecutive days). The formula of the test compound solution was 0.3% test compound, 40% DMSO, 30% ethanol, and the balance of water; the formula of the control solvent was 40% DMSO, 30% ethanol, and the balance of water; the formula of the positive control drug group was 7.5% clascoterone, 40% DMSO, 30% ethanol, and the balance of water. The hair regrowth in the depilated area of the mice in each group was observed and photographed 16 days after the start of topical administration of the test compound solution.
On day 18 of the test, 5 new hairs were pulled out from the back depilated area of each mouse in each group, the lengths of the hairs were measured using a vernier caliper, and the lengths of the hairs of the mice in each group were counted. The skin of the depilated area of the mice in each group was cut out, and hematoxylin-eosin staining (HE staining) was performed. […]

## CCC(=O)O[C@]1(C(=O)CO)CC[C@H]2[C@@H]3CCC4=CC(=O)CC[C@]4(C)[C@H]3CC[C@@]21C [clascoterone, reference compound]
Alopecia mouse model, FIG. 3
  hair growth and number of hair follicles compared to the model group (in words): significantly grown hairs and the number of hair follicles was significantly increased
Day 18, per field (×100), HE staining, topical once daily for 16 days
  Number of hair follicles (X ± SD): 53.533 ± 24.929
Day 18, topical once daily for 16 days, testosterone propionate alopecia mice
  Hair length (X ± SD): 5.649 ± 0.059 mm
